pIC50: −log10 of the molar value.
How the values were obtained:
[1] = target: T1, TEC (Homo sapiens, UniProt P42680); test: KINOMEscan binding assay; set-up: purchased Eurofins DiscoverX (KINOMEscan scanMAX service)
T1 sequence (P42680 1-631): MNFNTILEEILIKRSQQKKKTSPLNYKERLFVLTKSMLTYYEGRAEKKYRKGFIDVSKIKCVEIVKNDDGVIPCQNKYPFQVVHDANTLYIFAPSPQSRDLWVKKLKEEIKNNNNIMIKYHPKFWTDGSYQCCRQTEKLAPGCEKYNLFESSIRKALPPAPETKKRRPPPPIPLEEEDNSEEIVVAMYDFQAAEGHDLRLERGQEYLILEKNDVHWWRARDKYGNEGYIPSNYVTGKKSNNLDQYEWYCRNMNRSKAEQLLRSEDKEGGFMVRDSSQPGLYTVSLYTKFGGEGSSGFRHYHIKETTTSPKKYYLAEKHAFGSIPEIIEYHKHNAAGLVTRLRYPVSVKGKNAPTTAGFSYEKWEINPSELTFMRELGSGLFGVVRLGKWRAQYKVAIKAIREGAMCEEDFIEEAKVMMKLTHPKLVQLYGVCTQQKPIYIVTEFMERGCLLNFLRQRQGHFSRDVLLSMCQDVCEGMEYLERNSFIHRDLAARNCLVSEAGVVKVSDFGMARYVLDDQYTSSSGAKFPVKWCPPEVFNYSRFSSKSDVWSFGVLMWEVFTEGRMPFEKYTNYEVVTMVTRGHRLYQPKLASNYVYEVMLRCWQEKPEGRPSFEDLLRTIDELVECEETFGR

[2] = target: LCK (Homo sapiens, UniProt P06239); test: mobility shift assay (MSA)
Chain of LCK (P06239 whole entry): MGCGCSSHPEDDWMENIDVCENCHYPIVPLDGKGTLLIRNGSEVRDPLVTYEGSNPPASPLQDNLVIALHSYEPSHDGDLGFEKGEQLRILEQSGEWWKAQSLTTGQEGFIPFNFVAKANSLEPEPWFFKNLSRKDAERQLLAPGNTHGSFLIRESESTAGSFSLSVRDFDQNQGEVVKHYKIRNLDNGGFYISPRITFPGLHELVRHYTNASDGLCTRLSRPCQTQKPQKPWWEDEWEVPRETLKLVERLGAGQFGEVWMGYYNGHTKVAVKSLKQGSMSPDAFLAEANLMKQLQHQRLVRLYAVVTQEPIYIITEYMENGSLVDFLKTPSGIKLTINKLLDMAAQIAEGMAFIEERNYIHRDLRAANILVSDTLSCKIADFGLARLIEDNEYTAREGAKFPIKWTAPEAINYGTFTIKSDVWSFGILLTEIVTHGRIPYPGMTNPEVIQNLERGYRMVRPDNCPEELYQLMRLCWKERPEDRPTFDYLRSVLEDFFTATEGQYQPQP

[3] = target: BLK (Homo sapiens, UniProt P51451); test: Z'-Lyte kinase inhibition assay; format: biochemical; set-up: purchased Thermo Fisher Scientific (Invitrogen Z'-Lyte service); conditions: 60 min preincubation
Chain of BLK (P51451 whole entry): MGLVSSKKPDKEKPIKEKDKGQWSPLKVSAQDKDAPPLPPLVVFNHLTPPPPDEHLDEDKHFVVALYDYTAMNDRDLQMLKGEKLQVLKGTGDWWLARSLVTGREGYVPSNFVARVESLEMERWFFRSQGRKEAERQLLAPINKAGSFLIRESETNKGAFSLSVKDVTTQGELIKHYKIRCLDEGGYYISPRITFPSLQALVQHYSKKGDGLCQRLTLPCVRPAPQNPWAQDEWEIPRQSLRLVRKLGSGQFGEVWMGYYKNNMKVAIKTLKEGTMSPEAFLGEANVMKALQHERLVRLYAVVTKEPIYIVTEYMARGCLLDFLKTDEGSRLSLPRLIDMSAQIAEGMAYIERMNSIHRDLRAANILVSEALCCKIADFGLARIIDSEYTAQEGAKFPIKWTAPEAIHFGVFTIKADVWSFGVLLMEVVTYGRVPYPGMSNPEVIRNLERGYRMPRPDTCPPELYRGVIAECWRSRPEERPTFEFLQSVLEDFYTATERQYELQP
Description: In all the assays, each test compound was preincubated with peptide/kinase mixture or kinase/antibody mixture for 60 min at room temperature before adding the ATP solution or AlexaFluor labeled Tracer to initiate the 60-min incubation of the reactants.

[4] = target: LYNa (Homo sapiens, UniProt P07948); test: mobility shift assay (MSA)
Chain of LYNa (P07948 whole entry): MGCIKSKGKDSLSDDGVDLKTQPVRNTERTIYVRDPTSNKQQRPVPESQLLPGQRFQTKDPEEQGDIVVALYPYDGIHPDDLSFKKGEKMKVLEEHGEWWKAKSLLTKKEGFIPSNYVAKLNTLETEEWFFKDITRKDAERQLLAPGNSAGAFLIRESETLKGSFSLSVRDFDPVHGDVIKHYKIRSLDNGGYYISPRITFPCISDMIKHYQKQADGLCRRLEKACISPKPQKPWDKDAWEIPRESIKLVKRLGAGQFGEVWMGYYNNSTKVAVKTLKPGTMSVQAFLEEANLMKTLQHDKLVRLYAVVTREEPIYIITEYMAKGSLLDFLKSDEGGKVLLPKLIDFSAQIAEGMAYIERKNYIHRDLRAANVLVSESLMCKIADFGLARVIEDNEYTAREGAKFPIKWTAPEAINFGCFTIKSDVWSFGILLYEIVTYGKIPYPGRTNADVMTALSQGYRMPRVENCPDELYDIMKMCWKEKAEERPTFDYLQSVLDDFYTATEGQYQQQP

[5] = target: CSK (Homo sapiens, UniProt P41240); test: mobility shift assay (MSA)
Chain of CSK (P41240 whole entry): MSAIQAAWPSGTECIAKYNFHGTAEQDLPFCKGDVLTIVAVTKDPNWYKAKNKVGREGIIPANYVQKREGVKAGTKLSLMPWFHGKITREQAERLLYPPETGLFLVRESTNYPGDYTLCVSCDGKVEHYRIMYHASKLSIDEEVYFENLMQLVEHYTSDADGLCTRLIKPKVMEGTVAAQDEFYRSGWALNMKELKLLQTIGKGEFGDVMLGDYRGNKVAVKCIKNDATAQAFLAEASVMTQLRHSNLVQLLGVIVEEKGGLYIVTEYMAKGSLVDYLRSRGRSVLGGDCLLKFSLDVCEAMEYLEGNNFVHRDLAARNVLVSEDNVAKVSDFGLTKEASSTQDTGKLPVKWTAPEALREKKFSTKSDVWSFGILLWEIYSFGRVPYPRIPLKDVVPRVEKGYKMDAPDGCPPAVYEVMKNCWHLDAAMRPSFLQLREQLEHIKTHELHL

[6] = target: FYN (Homo sapiens, UniProt P06241); test: mobility shift assay (MSA)
Chain of FYN (P06241 whole entry): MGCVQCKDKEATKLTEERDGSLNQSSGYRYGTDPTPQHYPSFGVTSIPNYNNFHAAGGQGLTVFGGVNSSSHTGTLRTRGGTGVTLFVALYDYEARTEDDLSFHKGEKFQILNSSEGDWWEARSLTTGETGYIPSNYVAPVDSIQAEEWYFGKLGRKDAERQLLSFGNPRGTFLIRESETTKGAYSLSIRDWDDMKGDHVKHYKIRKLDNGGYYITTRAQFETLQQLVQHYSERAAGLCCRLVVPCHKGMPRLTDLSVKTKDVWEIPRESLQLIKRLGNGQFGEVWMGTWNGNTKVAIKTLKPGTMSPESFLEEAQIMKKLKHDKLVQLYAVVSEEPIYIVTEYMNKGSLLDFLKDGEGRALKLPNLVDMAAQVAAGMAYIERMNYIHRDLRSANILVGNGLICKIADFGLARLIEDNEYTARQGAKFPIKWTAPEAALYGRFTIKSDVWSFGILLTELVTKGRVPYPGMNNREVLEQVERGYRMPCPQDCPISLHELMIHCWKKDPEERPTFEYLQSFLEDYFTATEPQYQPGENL

[7] = tested on: BT system (B cells, peripheral blood mononuclear cells); test: BioMAP Diversity PLUS profiling, BT system; format: cell-based, human; conditions: 120, 370, 1100, 3300 nM
Description: In brief, cultures with one or more primary cell types from healthy human donors were treated with sets of stimulators specific to the cell subsets, and the optimized biomarker readouts for each system were measured by ELISA and other techniques, as listed in S1 Table. The assays included positive and negative controls as well as vehicle control. Results are presented as the log-transformed ratio of biomarker readouts for tirabrutinib-treated samples to vehicle controls.

SMILES: CC#CC(=O)N1CC[C@@H](n2c(=O)n(-c3ccc(Oc4ccccc4)cc3)c3c(N)ncnc32)C1 [Tirabrutinib]
- inhibition at 0.3 µM ([1]; 300 nM, read-out: inhibition of kinase binding (KINOMEscan)): 92.2%
- pIC50 [2]: 6.10
- pIC50 [3]: 5.89
- pIC50 [4]: 5.46
- pIC50 [5]: 6.35
- pIC50 [6]: 5.65
- effect on the BT system (B-cell growth, production of IgG, IL-6, IL-17A, TNFα) [7]: concentration-dependent inhibitory effect

SMILES: C=CC(=O)N1CCC([C@@H]2CCNc3c(C(N)=O)c(-c4ccc(Oc5ccccc5)cc4)nn32)CC1 [Zanubrutinib]
- Percent control ([1]; kinase TEC (Entrez TEC)): 20%

SMILES: CC#CC(=O)N1CCC[C@H]1c1nc(-c2ccc(C(=O)Nc3ccccn3)cc2)c2c(N)nccn12 [Acalabrutinib]
- pIC50 [2]: 5.28
- pIC50 [3]: 5.64
- pIC50 [4]: < 5.00
- pIC50 [5]: 5.18
- pIC50 [6]: < 5.00
